Data set [1] has as its target recombinant human BACE-1 protein (Homo sapiens (Human), UniProt P56817). The experiment in a line: Measurement of Inhibition of β-Secretase Activity. Particulars: 3 h at 30° C., pH5.0, read-out: IC50 value. In kind it is biochemical. Summed up: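 Recombinant human BACE-1 incubated with compound and Eu-cryptate-labelled biotinylated peptide substrate 3 h at 30° C in 50 mM sodium acetate pH 5.0, 0.008% Triton X-100. Streptavidin-XL665 in KF-containing phosphate buffer pH 7.0 then added, 1 h at 30° C, for time-resolved FRET read-out.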

Setting [2] is: fluorescence-quenched peptide substrate 18 nM, BACE-1 7.4 nM.
[3] abbreviates: recombinant human BACE-1 protein.

The structures appear in SMILES notation. Where two headings read alike, the source gives them in different places.

Sequence of recombinant human BACE-1 protein (P56817 46-501): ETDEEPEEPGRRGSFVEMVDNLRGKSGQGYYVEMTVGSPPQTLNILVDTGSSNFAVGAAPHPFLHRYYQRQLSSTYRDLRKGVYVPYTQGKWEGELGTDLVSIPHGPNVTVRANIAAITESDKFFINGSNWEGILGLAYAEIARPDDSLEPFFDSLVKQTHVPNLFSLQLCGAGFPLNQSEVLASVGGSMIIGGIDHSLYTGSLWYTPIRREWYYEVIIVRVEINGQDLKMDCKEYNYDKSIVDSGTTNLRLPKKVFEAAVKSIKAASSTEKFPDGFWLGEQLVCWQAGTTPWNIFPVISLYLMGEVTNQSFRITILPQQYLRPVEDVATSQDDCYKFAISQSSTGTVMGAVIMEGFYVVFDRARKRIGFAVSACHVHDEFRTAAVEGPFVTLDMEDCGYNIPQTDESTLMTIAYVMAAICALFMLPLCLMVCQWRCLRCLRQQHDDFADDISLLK

In the case of `CC1(c2ccc3ccccc3c2)CSC(N)=N1.Cl` (stereo not shown), the melting point is 264 to 265 °C. Still for that read-out and setting: the result for `CCN(C(=O)c1ccco1)c1cccc(C2(C)CCSC(N)=N2)c1.Cl` (stereo not shown) reads 262 to 267 °C; that for `CN1C(=N)SCCC1(C)c1ccc2ccccc2c1.Cl` (stereo not shown), 266 to 268 °C; that for `CC1(c2cccc(O)c2)CCSC(N)=N1.Cl` (stereo not shown), 238 to 239 °C. The same measure, in the same setting: the result for `COc1ccc(C2(C)CCSC(=N)N2C)cc1.Cl` (stereo not shown) reads 221 to 224 °C. On the same count and under the same terms, to `CC1(c2ccccc2)CC(c2ccccc2)SC(N)=N1.Cl` (stereo not shown) belongs 161 to 165 °C; to `Cc1ccc(C(=O)NCc2cccc(C3(C)CCSC(N)=N3)c2)cc1.Cl` (stereo not shown), 153 to 155 °C; to `CC1(c2ccc(OCc3ccc(-c4ccccc4)cc3)cc2)CCSC(N)=N1.Cl` (stereo not shown), 281 °C (dec.).

`CC1(c2ccccc2)CCN=C(N)S1.Cl` (stereo not shown) returned a melting point of 201 to 204 °C. Regarding `CC1(c2ccccc2)CN=C(N)SC1.Cl` (stereo not shown), the melting point lay within 235 to 240 °C. Still for that read-out and setting: to `CO/N=C(\C)c1cccc(C2(C)CCSC(N)=N2)c1.Cl` (stereo not shown) belongs 192 to 194 °C; to `CC1(c2cccc3c2CC(=O)N3)CCSC(N)=N1.Cl` (stereo not shown), 272 to 285 °C (dec.).

Take `CC1(c2ccc3c(c2)OCCO3)CCNC(N)=N1.Cl` (stereo not shown): the melting point lay within 198 to 201 °C. For `COc1ccc(C2(C)CCSC(NC(=N)N)=N2)cc1F.Cl` (stereo not shown), the melting point lay within 167 to 174 °C. `CC1(c2ccccc2)CCN=C(N)O1.Cl` (stereo not shown) had a melting point of 205 to 206 °C.

In turn, `CC1(c2ccccc2)CCCSC(N)=N1.Cl` (stereo not shown) displayed a melting point of 223 to 225 °C. Same read-out and setting: the result for `CC1(c2cccc(CNC(=O)c3ccccc3)c2)CCSC(N)=N1.Cl` (stereo not shown) reads 143 to 145 °C; that for `COc1ccc(C2(C)CCCN=C(N)S2)cc1.Cl` (stereo not shown), 130 to 131 °C. Still for that read-out and setting: to `CC1(c2ccc(Cl)cc2)CSC(N)=N1` (stereo not shown) [Compound 24] belongs 116 to 117 °C; to `CC1(c2ccc(N)cc2)CCSC(N)=N1` (stereo not shown) [Compound 58], 234 to 240 °C. Consider `COc1ccc(C2(C)CC(C)SC(N)=N2)cc1` (stereo not shown) [Compound 86], for which the melting point lay within 141 to 142 °C. Still for that read-out and setting: to `CCOc1ccc(C2(C)CCSC(N)=N2)cc1` (stereo not shown) [Compound 132] belongs 147 to 150 °C; to `CC1(c2cccc(OCCCN3CCCC3=O)c2)CCSC(N)=N1` (stereo not shown) [Compound 149], 143 to 145 °C; to `CCCC1(c2ccc(OC)cc2)CCSC(N)=N1` (stereo not shown) [Compound 202], 117 to 118 °C. Molecule `CC1(c2csc(C(=O)Nc3ccccc3)c2)CCSC(N)=N1` (stereo not shown) [Compound 235] displayed a melting point of 196 to 200 °C. In turn, `CC1(c2cc(F)cc(NC(=O)c3cnccn3)c2)CCSC(N)=N1` (stereo not shown) [Compound 244] registered a melting point of 222 to 224 °C. The molecule `COCc1cc(NC(=O)c2ccc(Cl)cn2)cc(C2(C)CCSC(N)=N2)c1.Cl` (stereo not shown) [Compound 284] returned a melting point of 181.5 °C.

`CC1(c2ccc3c(c2)CCO3)CCS/C(=N/S(C)(=O)=O)N1` (stereo not shown) [Compound 308] displayed a melting point of 167 to 168 °C. For `CC1(c2cc(F)cc(NC(=O)c3ncc(Cl)cc3Cl)c2)CCSC(N)=N1` (stereo not shown) [Compound 342], the melting point was in the range of 184 to 187 °C. Same read-out and setting: the result for `COc1ccc(C2(C)CCCN=C(NC(C)(C)C)S2)cc1` (stereo not shown) [Compound 354] reads 102 to 103 °C.

`CC(C)(C)c1cccc(Oc2ccc(C3(C)CCSC(N)=N3)cc2)c1` (stereo not shown) [Compound 401] gave a melting point of 106 to 107 °C.

In the case of `NC1=NC2(CCCc3ccccc32)CCS1` (stereo not shown) [Compound 445], the melting point lay within 92 to 93 °C. On the same count and under the same terms, the result for `NC1=NC2(CCS1)CCc1ccccc12` (stereo not shown) [Compound 525] reads 105 to 106 °C.

On to `CC1(C)CCC(C)(C)c2cc(C3(C)CCSC(N)=N3)ccc21` (stereo not shown) [Compound 533], for which the melting point lay within 180 to 181 °C.

Consider `CC1(c2ccc(C(F)(F)F)cc2)CCSC(N)=N1` (stereo not shown) [Compound 573], for which the melting point fell in the range of 112 to 114 °C.

In turn, `Cn1nc(C(=O)Nc2cccc(C3(C)CCSC(N)=N3)c2)cc1[N+](=O)[O-]` (stereo not shown) [Compound 601] showed a melting point of 181 to 192 °C. The molecule `CCCCOc1ccc(C2(C)CCSC(N)=N2)cc1` (stereo not shown) [Compound 636] showed a melting point of 118 to 119 °C. `CN(C)C(=O)c1ccc(C2(C)CCSC(N)=N2)cc1` (stereo not shown) [Compound 644] returned a melting point of 201 to 203 °C.

In turn, `CC1(c2cccc(CN3CCOCC3)c2)CCSC(N)=N1` (stereo not shown) [Compound 649] yielded a melting point of 161 to 162 °C. On the same count and under the same terms, the result for `CC1(c2cccc(NC(=O)c3ccc(C#N)cn3)c2)CCSC(N)=N1` (stereo not shown) [Compound 651] reads 193 to 196 °C. Same read-out and setting: the result for `CN(C)Cc1ccc(C(=O)Nc2cccc(C3(C)CCSC(N)=N3)c2)nc1` (stereo not shown) [Compound 653] reads 193 to 194 °C; that for `COc1ccccc1C1(C)CCSC(N)=N1` (stereo not shown) [Compound 680], 159 to 160 °C; that for `CC1(c2cccc(COc3ccc(Cl)cn3)c2)CCSC(N)=N1` (stereo not shown) [Compound 683], 166 to 168 °C. In the case of `CC1(c2cccc(C(=O)Nc3ccc(Cl)cc3)c2)CCSC(N)=N1` (stereo not shown) [Compound 700], the melting point was in the range of 177 to 178 °C. Same read-out and setting: to `CCC1(c2ccc(OC)cc2)CCSC(N)=N1` (stereo not shown) [Compound 709] belongs 99 to 100 °C; to `CC1(c2cccc(NC(=O)c3ncc(Cl)cc3O)c2)CCSC(N)=N1` (stereo not shown) [Compound 717], 157 to 162 °C; to `CC1(c2cccc(NC(=O)c3ncc(Cl)cc3N)c2)CCSC(N)=N1` (stereo not shown) [Compound 743], 148 to 150 °C.

With `CC(=O)/N=C1\NC(C)(c2ccc(F)cc2)CCS1` (stereo not shown) [Compound 767], the melting point lay within 98 to 100 °C. Still for that read-out and setting: to `CC(C)(C)NC1=NC(C)(c2ccccc2)CCCS1` (stereo not shown) [Compound 810] belongs 47 to 48 °C; to `CC(C)c1ccc2cc(C3(C)CCSC(N)=N3)ccc2c1` (stereo not shown) [Compound 811], 138 to 139 °C. On the same count and under the same terms, to `CC1(c2cc(NC(=O)c3ncc(Cl)cc3Cl)ccc2F)CCSC(N)=N1` (stereo not shown) [Compound 827] belongs 134 to 137 °C; to `COc1cccc(C2(C)CCSC(N)=N2)c1` (stereo not shown) [Compound 851], 82 to 83 °C; to `CCOc1cnc(C(=O)Nc2cccc(C3(C)CCSC(N)=N3)c2)cn1` (stereo not shown) [Compound 863], 192 to 194 °C. The molecule `CC1(c2ccc(OCCc3ccc(O)cc3)cc2)CCSC(N)=N1` (stereo not shown) [Compound 881] yielded a melting point of 141 to 144 °C. Still for that read-out and setting: the result for `CC1(c2ccc(OCc3ccccc3)cc2)CCSC(N)=N1` (stereo not shown) [Compound 892] reads 251 °C (dec.); that for `COc1ccc(SCCOc2cccc(C3(C)CCSC(N)=N3)c2)cc1` (stereo not shown) [Compound 916], 131 to 132 °C; that for `CNC(=O)CNC1=NC(C)(c2ccc3ccccc3c2)CCS1` (stereo not shown) [Compound 930], 132.1 to 134.4 °C.

In the case of `CC1(c2ccc(OC(F)(F)F)cc2)CCSC(N)=N1` (stereo not shown) [Compound 968], the melting point fell in the range of 107 to 109 °C. `Cc1ccc(S(=O)(=O)Nc2cc(Br)cc(C3(C)CCSC(N)=N3)c2)cc1` (stereo not shown) [Compound 1172]: the IC50 in data set [1] (setting [2]) is less than 100 µM. On to `CC1(c2cccc(NC(=O)c3ccc(O)cc3)c2)CCSC(N)=N1` (stereo not shown) [Compound 1174], for which the IC50 in data set [1] (setting [2]) was less than 100 µM. In the case of `CCOCc1ccc(C(=O)Nc2cccc(C3(C)CCSC(N)=N3)c2)nc1` (stereo not shown) [Compound 1185], in data set [1] (setting [2]), the IC50 was less than 100 µM.

Regarding `CC1(c2cccc(OCC(=O)Nc3ccc(F)cc3)c2)CCSC(N)=N1` (stereo not shown) [Compound 1186], in data set [1] (setting [3]), the IC50 is 5.7 µM. Still for that read-out and setting: to `CCOC(=O)C(F)=Cc1cccc(C2(C)CCSC(N)=N2)c1` (stereo not shown) [Compound 1205] belongs 8.1 µM. As to `COc1cnc(C(=O)Nc2cccc(C3(C)CCSC(N)=N3)c2)c(C)c1` (stereo not shown) [Compound 1211], in data set [1] (setting [2]), the IC50 is less than 100 µM. Regarding `CC1(c2cccc(OCCCc3ccncc3)c2)CCSC(N)=N1` (stereo not shown) [Compound 1221], the IC50 in data set [1] (setting [2]) was less than 100 µM. The same measure, in the same setting: the result for `CC1(c2cccc(NC(=O)/C=C/c3ccccn3)c2)CCSC(N)=N1` (stereo not shown) [Compound 1237] reads less than 100 µM; that for `CC1(c2cccc(NCc3ccc(F)cc3)c2)CCSC(N)=N1` (stereo not shown) [Compound 1243], less than 100 µM. Same read-out and setting: to `CC1(c2cccc(NC(=O)CCNC(=O)c3ccc(Br)cc3)c2)CCSC(N)=N1` (stereo not shown) [Compound 1255] belongs less than 100 µM.

Take `CC1(c2cccc(C(=O)Nc3nccs3)c2)CCSC(N)=N1` (stereo not shown) [Compound 1256]: in data set [1] (setting [2]), the IC50 was less than 100 µM. On the same count and under the same terms, the result for `CC1(c2cccc(OC(F)(F)C(=O)Nc3ccccc3)c2)CCSC(N)=N1` (stereo not shown) [Compound 1257] reads less than 100 µM; that for `CC1(c2cccc(NC(=O)/C=C/c3ccccc3)c2)CCSC(N)=N1` (stereo not shown) [Compound 1258], less than 100 µM.

As to `CC1(c2cccc(NC(=O)c3cnc(NCCO)cn3)c2)CCSC(N)=N1` (stereo not shown) [Compound 1263], the IC50 in data set [1] (setting [2]) is less than 100 µM. As to `CC1(c2cccc(NC(=O)c3cnc(N4CCOCC4)cn3)c2)CCSC(N)=N1` (stereo not shown) [Compound 1264], in data set [1] (setting [2]), the IC50 is less than 100 µM.

Regarding `CC1(c2cccc(NC(=O)c3cnc(N)cn3)c2)CCSC(N)=N1` (stereo not shown) [Compound 1265], the IC50 in data set [1] (setting [2]) is less than 100 µM. On the same count and under the same terms, the result for `CC1(c2cccc(NC(=O)c3cnc(N=[N+]=N)cn3)c2)CCSC(N)=N1` (stereo not shown) [Compound 1266] reads less than 100 µM; that for `COCCNc1cnc(C(=O)Nc2cccc(C3(C)CCSC(N)=N3)c2)cn1` (stereo not shown) [Compound 1269], less than 100 µM; that for `COc1cnc(C(=S)Nc2cccc(C3(C)CCSC(N)=N3)c2)cn1` (stereo not shown) [Compound 1270], less than 100 µM. Still for that read-out and setting: to `CC1(c2cccc(NC(=O)c3cnc(N4CCCC4)cn3)c2)CCSC(N)=N1` (stereo not shown) [Compound 1271] belongs less than 100 µM; to `CC1(c2cccc(NC(=O)C(=O)c3ccccc3)c2)CCSC(N)=N1` (stereo not shown) [Compound 1272], less than 100 µM.

What is called melting point is the temperature, or range, at which the solid turns liquid. For orientation: IC50 means the point on the concentration scale where inhibition reaches its midpoint.

The values above are taken from US8546380B2, “Aminodihydrothiazine derivatives” (Shionogi & Co., Ltd., priority 2005, dated 2013).
